Patent US10676431B2, “Phenylpyrrolidinone formyl peptide 2 receptor agonists” (BRISTOL-MYERS SQUIBB COMPANY, priority 2018, dated 2020)

Assays:
human FPR2 = human FPR2 (Homo sapiens (Human), UniProt P25090); assay: FPR2 cyclic adenosine monophosphate (cAMP) assay; type: cell-based; settings: CHO cells overexpressing human FPR2; forskolin 5 μM, IBMX 200 μM; inhibition of cAMP production, HTRF; read-out: hFPR2 cAMP2 EC50
Protocol: (§1) FPR2 and FPR1 Cyclic Adenosine Monophosphate (cAMP) Assays. A mixture of forskolin (5 μM final for FPR2 or 10 μM final for FPR1) and IBMX (200 μM final) were added to 384-well Proxiplates (Perkin-Elmer) pre-dotted with test compounds in DMSO (1% final) at final concentrations in the range of 0.020 nM to 100 μM. Chinese Hamster Ovary cells (CHO) overexpressing human FPR1 or human FPR2 receptors were cultured in F-12 (Ham's) medium supplemented with 10% qualified FBS, 250 μg/ml zeocin and 300 μg/ml hygromycin (Life Technologies). Reactions were initiated by adding 2,000 human FPR2 cells per well or 4,000 human FPR1 cells per well in Dulbecco's PBS (with calcium and magnesium) (Life Technologies) supplemented with 0.1% BSA (Perkin-Elmer). The reaction mixtures were incubated for 30 min at room temperature. The level of intracellular cAMP was determined using the HTRF HiRange cAMP assay reagent kit (Cisbio) according to manufacturer's instruction. Solutions of cryptate conjugated anti-cAMP and d2 fluorophore-labelled cAMP were made in a supplied lysis buffer separately. Upon completion of the reaction, the cells were lysed with equal volume of the d2-cAMP solution and anti-cAMP solution. After a 1-h room temperature incubation, time-resolved fluorescence intensity was measured using the Envision (Perkin-Elmer) at 400 nm excitation and dual emission at 590 nm and 665 nm. A calibration curve was constructed with an external cAMP standard at concentrations ranging from 1 μM to 0.1 pM by plotting the fluorescent intensity ratio from 665 nm emission to the intensity from the 590 nm emission against cAMP concentrations. The potency and activity of a compound to inhibit cAMP production was then determined by fitting to a 4-parametric logistic equation from a plot of cAMP level versus compound concentrations.

human FPR1 = human FPR1 (Homo sapiens (Human), UniProt P21462); assay: FPR1 cyclic adenosine monophosphate (cAMP) assay; type: cell-based; settings: CHO cells overexpressing human FPR1; forskolin 10 μM, IBMX 200 μM; inhibition of cAMP production, HTRF; read-out: hFPR1 cAMP EC50
human FPR1, sequence (P21462 whole entry): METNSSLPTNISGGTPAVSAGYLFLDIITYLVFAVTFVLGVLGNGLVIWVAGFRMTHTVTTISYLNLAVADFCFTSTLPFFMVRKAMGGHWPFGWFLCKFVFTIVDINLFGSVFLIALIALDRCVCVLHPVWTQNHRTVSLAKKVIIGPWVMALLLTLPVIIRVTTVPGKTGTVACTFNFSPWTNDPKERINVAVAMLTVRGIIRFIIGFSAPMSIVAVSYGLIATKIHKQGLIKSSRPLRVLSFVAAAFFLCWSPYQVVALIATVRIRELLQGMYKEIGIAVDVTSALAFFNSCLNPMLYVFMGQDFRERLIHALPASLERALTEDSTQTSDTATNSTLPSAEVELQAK
Protocol: as §1, with “After a 1-h room temperature incubation, time-resolved fluorescence intensity was measured using the Envision (Perkin-Elmer) at 400 nm excitation and dual emission at 590 nm and 665 nm. A calibration curve was constructed with an external cAMP standard at concentrations ranging from 1 μM to 0.1 pM by plotting the fluorescent intensity ratio from 665 nm emission to the intensity from the 590 nm emission against cAMP concentrations.” left out

human FPR2, sequence (P25090 whole entry): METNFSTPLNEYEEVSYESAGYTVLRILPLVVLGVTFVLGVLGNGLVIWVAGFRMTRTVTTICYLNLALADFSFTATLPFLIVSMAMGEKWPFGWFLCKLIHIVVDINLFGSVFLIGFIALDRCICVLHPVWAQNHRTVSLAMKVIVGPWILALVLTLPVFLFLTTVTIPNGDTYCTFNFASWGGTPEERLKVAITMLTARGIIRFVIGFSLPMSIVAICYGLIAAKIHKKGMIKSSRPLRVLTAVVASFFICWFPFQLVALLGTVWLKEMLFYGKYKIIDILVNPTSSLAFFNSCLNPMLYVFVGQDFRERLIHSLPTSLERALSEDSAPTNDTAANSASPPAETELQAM

Compound	EC50 (human FPR2)	EC50 (human FPR1)
CCP(=O)(CC)c1ccccc1-c1ccc(N2CC[C@@H](NC(=O)Nc3ncc(Cl)cc3F)C2=O)c(F)c1F [Example 67]	2.48 nM	1300 nM
CC1C[C@@H](NC(=O)Nc2ccc(Cl)cc2F)C(=O)N1c1ccc(-c2ccccc2S(C)(=O)=O)c(F)c1F (some centres unmarked) [Example 129]	2.4 nM	19 nM
COC[C@@H]1C[C@@H](NC(=O)Nc2ccc(Cl)cc2F)C(=O)N1c1ccc(-c2ccccc2P(C)(C)=O)c(F)c1F [Example 30]	0.22 nM	83 nM
O=C(Nc1ccc(C(F)(F)F)cc1F)N[C@@H]1CCN(c2ccc(-c3ccccc3CO)c(F)c2F)C1=O [Example 31]	4 nM	430 nM
CP(C)(=O)c1ccccc1-c1ccc(N2CC[C@@H](NC(=O)Nc3ccc(Cl)cc3F)C2=O)c(C(F)(F)F)c1F [Example 91, (R)-1-(4-Chloro-2-fluorophenyl)-3-(1-(2′-(dimethylphosphoryl)-2-fluoro-3-(trifluoromethyl)-[1,1′-biphenyl]-4-yl)-2-oxopyrrolidin-3-yl)urea]	5.7 nM	200 nM
CP(C)(=O)c1ccccc1-c1ccc(N2CC[C@@H](NC(=O)Nc3ccc(C(F)(F)F)cc3F)C2=O)c(C(F)(F)F)c1F [Example 92]	8.3 nM	220 nM
CS(=O)(=O)Nc1ccccc1-c1ccc(N2CC[C@@H](NC(=O)Nc3ccc(C(F)(F)F)nc3)C2=O)cc1 [Example 20]	24 nM	> 10000 nM
CS(=O)(=O)Nc1ccccc1-c1ccc(N2CC[C@@H](NC(=O)Nc3ccc(Cl)cc3)C2=O)c(F)c1F [Example 1, (R)—N-(4′-(3-(3-(4-Chlorophenyl)ureido)-2-oxopyrrolidin-1-yl)-2′,3′-difluoro-[1,1′-biphenyl]-2-yl)methanesulfonamide]	0.43 nM	200 nM
Cc1c(N2CC[C@@H](NC(=O)Nc3ccc(Cl)cc3F)C2=O)ccc(-c2ccccc2P(C)(C)=O)c1F [Example 96]	2.9 nM	75 nM
CC1C[C@@H](NC(=O)Nc2ccc(Cl)cc2F)C(=O)N1c1ccc(-c2cccnc2P(C)(C)=O)c(F)c1F (some centres unmarked) [Example 122]	0.81 nM	610 nM
CP(C)(=O)c1ccccc1-c1ccc(N2CC[C@@H](NC(=O)Nc3ccc(Cl)cc3F)C2=O)c(F)c1Cl [Example 81]	0.52 nM	27 nM
CC1C[C@@H](NC(=O)Nc2ccc(Cl)cc2F)C(=O)N1c1ccc(-c2cccnc2P(C)(C)=O)c(F)c1F (some centres unmarked) [Example 121]	0.3 nM	5 nM
CC1(C)CN(c2ccc(-c3ccccc3P(C)(C)=O)c(F)c2F)C(=O)[C@@H]1NC(=O)Nc1cnc(Cl)cn1 [Example 130]	5.7 nM	3000 nM
COP(=O)(OC)c1ccccc1-c1ccc(N2CC[C@@H](NC(=O)Nc3ccc(C(F)(F)F)cc3F)C2=O)c(F)c1F [Example 108]	1.4 nM	–
CC1C[C@@H](NC(=O)Nc2ccc(C(F)(F)F)cc2F)C(=O)N1c1ccc(-c2ccccc2P(C)(C)=O)c(F)c1F (some centres unmarked) [Example 116]	1.21 nM	890 nM
CP(C)(=O)c1ccccc1-c1ccc(N2CC[C@@H](NC(=O)Nc3ccc(C(F)(F)F)cn3)C2=O)c(F)c1F [Example 64]	8.8 nM	2900 nM
Cn1ccc(-c2ccc(N3CC[C@@H](NC(=O)Nc4ccc(Cl)cc4F)C3=O)c(F)c2F)n1 [Example 28]	9.8 nM	550 nM
O=C(Nc1ccc(Cl)cc1)N[C@@H]1CCN(c2ccc(-c3cccnc3F)c(F)c2F)C1=O [Example 19]	22 nM	78 nM
CP(C)(=O)c1ccccc1-c1ccc(N2C(=O)[C@H](NC(=O)Nc3ccc(Cl)cc3F)C[C@H]2CO)c(F)c1F [Example 112, 1-(4-Chloro-2-fluorophenyl)-3-((3R,5S)-1-(2′-(dimethylphosphoryl)-2,3-difluoro-[1,1′-biphenyl]-4-yl)-5-(hydroxymethyl)-2-oxopyrrolidin-3-yl)urea]	0.27 nM	390 nM
N#Cc1ccccc1-c1ccc(N2CC[C@@H](NC(=O)Nc3ccc(Cl)cc3)C2=O)c(F)c1F [Example 8]	2 nM	61 nM

Compound	EC50 (human FPR2)	EC50 (human FPR1)
CP(C)(=O)c1ccccc1-c1ccc(N2CC[C@@H](NC(=O)Nc3ccc(C(F)(F)F)cc3F)C2=O)c(F)c1Cl [Example 77]	1.2 nM	79 nM
CP(C)(=O)c1ccccc1-c1ccc(N2C(=O)[C@@H](NC(=O)Nc3ccc(Cl)cc3F)C[C@H]2CO)c(F)c1F [Example 111]	30 nM	540 nM
CS(=O)(=O)c1ccccc1-c1ccc(N2CC[C@@H](NC(=O)Nc3ccc(C(F)(F)F)cc3)C2=O)c(F)c1F [Example 11]	2.6 nM	290 nM
CP(C)(=O)c1ncccc1-c1ccc(N2CC[C@@H](NC(=O)Nc3ccc(Cl)cc3F)C2=O)c(F)c1F [Example 74]	2.2 nM	140 nM
CP(C)(=O)c1ccccc1-c1cc(F)c(N2CC[C@@H](NC(=O)Nc3ccc(Cl)cc3F)C2=O)c(F)c1 [Example 53]	7.8 nM	2700 nM
CP(C)(=O)c1ccccc1-c1ccc(N2CC[C@@H](NC(=O)Nc3ccc(Cl)cn3)C2=O)c(F)c1F [Example 49]	5.6 nM	3400 nM
O=C(Nc1ccc(C(F)(F)F)cc1)N[C@@H]1CCN(c2ccc(-c3ccccc3CO)c(F)c2F)C1=O [Example 41]	3.6 nM	500 nM
CP(C)(=O)c1ccccc1-c1ccc(N2CC[C@@H](NC(=O)Nc3ccc(C(F)(F)F)cc3F)C2=O)c(F)c1C1CC1 [Example 89, (R)-1-(1-(2-Cyclopropyl-2′-(dimethylphosphoryl)-3-fluoro-[1,1′-biphenyl]-4-yl)-2-oxopyrrolidin-3-yl)-3-(2-fluoro-4-(trifluoromethyl)phenyl)urea]	4.4 nM	25 nM
CC(C)c1cc(-c2ccccc2S(C)(=O)=O)ccc1N1CC[C@@H](NC(=O)Nc2ccc(Cl)cc2F)C1=O [Example 40]	4.6 nM	50 nM
CP(C)(=O)c1ccccc1-c1ccc(N2CC[C@@H](NC(=O)Nc3ccc(Cl)cc3F)C2=O)c(C(F)F)c1F [Example 107]	11 nM	5.8 nM
CCOP(C)(=O)c1ccccc1-c1ccc(N2CC[C@@H](NC(=O)Nc3ccc(C(F)(F)F)cc3F)C2=O)c(F)c1F (some centres unmarked) [Example 104]	5.2 nM	–
O=C(Nc1ccc(Cl)cc1F)N[C@@H]1C[C@@H](CO)N(c2ccc(-c3ccccc3F)c(F)c2F)C1=O [Example 82]	2.5 nM	780 nM
CP(C)(=O)c1ccccc1-c1ccc(N2CC[C@@H](NC(=O)Nc3ccc(OC(F)(F)F)cc3F)C2=O)c(F)c1F [Example 69]	22 nM	5000 nM
COc1ncccc1-c1ccc(N2CC[C@@H](NC(=O)Nc3ccc(Cl)cc3F)C2=O)c(F)c1F [Example 118]	17 nM	320 nM
CP(C)(=O)c1ncncc1-c1ccc(N2CC[C@@H](NC(=O)Nc3ccc(C(F)(F)F)cc3F)C2=O)c(F)c1F [Example 93]	12 nM	780 nM
CC(N)c1cccc(-c2ccc(N3CC[C@@H](NC(=O)Nc4ccc(Cl)cc4)C3=O)c(F)c2F)c1 (some centres unmarked) [Example 12]	2.5 nM	450 nM
CS(=O)(=O)Nc1ccccc1-c1ccc(N2CC[C@@H](NC(=O)Nc3ccc(C(F)(F)F)cc3)C2=O)c(F)c1F [Example 6]	1 nM	190 nM
CCOP(C)(=O)c1ccccc1-c1ccc(N2CC[C@@H](NC(=O)Nc3ccc(Cl)cc3F)C2=O)c(F)c1F (some centres unmarked) [Example 101]	0.66 nM	–
CCOP(C)(=O)c1ccccc1-c1ccc(N2CC[C@@H](NC(=O)Nc3ccc(C(F)(F)F)cc3F)C2=O)c(F)c1F (some centres unmarked) [Example 105]	6.9 nM	–
